# Experimental data reported in patent publication US9695155B2, “Herbicidal substituted pyrimidinyloxy benzene compounds” (E. I. DU PONT DE NEMOURS AND COMPANY, priority 2013, dated 2017).
# Experiments:
# [1] = tested on: arrowleaf sida; assay: Test E postemergence; type: in vivo, Sida rhombifolia
# From the text: (§1) Seeds of plant species selected from corn (Zea mays), soybean (Glycine max), velvetleaf (Abutilon theophrasti), lambsquarters (Chenopodium album), wild poinsettia (Euphorbia heterophylla), palmer pigweed (Amaranthus palmeri), waterhemp (common waterhemp, Amaranthus rudis), surinam grass (Brachiaria decumbens), large (Lg) crabgrass (Digitaria sanguinalis), Brazilian crabgrass (Digitaria horizontalis), fall panicum (Panicum dichotomiflorum), giant foxtail (Setaria faberii), green foxtail (Setaria viridis), goosegrass (Eleusine indica), johnsongrass (Sorghum halepense), ragweed (common ragweed, Ambrosia elatior), barnyardgrass (Echinochloa crus-galli), sandbur (southern sandbur, Cenchrus echinatus), arrowleaf sida (Sida rhombifolia), Italian ryegrass (Lolium multiflorum), dayflower (Virginia (VA) dayflower, Commelina virginica), field bindweed (Convolvulus arvensis), morningglory (Ipomoea coccinea), nightshade (eastern black nightshade, Solanum ptycanthum), kochia (Kochia scoparia), yellow nutsedge (Cyperus esculentus), cocklebur (common cocklebur, Xanthium strumarium), smartweed (ladysthumb smartweed, and hairy beggarticks (Bidens pilosa), were planted into a silt loam soil and treated preemergence with test chemicals formulated in a non-phytotoxic solvent mixture which included a surfactant.
# (§2) At the same time, plants from these crop and weed species and also horseweed (Canada horseweed, Conyza canadensis), waterhemp_RES1, (ALS & Triazine resistant common waterhemp, Amaranthus rudis), and waterhemp_RES2, (ALS & HPPD resistant common waterhemp, Amaranthus rudis) were planted in pots containing Redi-Earth® planting medium (Scotts Company, 14111 Scottslawn Road, Marysville, Ohio 43041) comprising spaghnum peat moss, vermiculite, wetting agent and starter nutrients were treated with postemergence applications of test chemicals formulated in the same manner. Plants ranged in height from 2 to 18 cm for postemergence treatments (1- to 4-leaf stage). Treated plants and controls were maintained in a greenhouse for 14 to 21 days, after which time all species were compared to controls and visually evaluated. Plant response ratings, summarized in Table E, are based on a scale of 0 to 100 where 0 is no effect and 100 is complete control. A dash (-) response means no test result.
# [2] = tested on: dayflower; assay: Test E postemergence; type: in vivo, Commelina virginica
# From the text: as §1, §2
# [3] = tested on: fall panicum; assay: Test E postemergence; type: in vivo, Panicum dichotomiflorum
# From the text: as §1, §2
# [4] = tested on: cocklebur; assay: Test E preemergence; type: in vivo, Xanthium strumarium; conditions: for Cocklebur plant response rating: scale 0 to 100 (0 no effect, 100 complete control); for Plant response rating, Cocklebur: scale 0 to 100, 0 no effect, 100 complete control
# From the text: as §1, §2
# [5] = Postemergence, 31 g ai/ha, scale 0 to 100
# [6] = Postemergence, 62 g ai/ha, scale 0 to 100
# [7] = Postemergence, 125 g ai/ha, scale 0 to 100
# [8] = postemergence, 8 g ai/ha, scale 0 to 100, 0 no effect, 100 complete control
# [9] = postemergence, 16 g ai/ha, scale 0 to 100, 0 no effect, 100 complete control
smiles,measurement,setting,value
"Fc1cnc(Oc2ccccc2-n2cc(Br)cn2)nc1 [Compound 10, 2-[2-(4-bromo-1H-pyrazol-1-yl)phenoxy]-5-fluoropyrimidine]",pest or weed control at 31 g/ha,"[1]; Sida rhombifolia, post-emergence, Postemergence, 31 g ai/ha, scale 0 to 100, read-out: Plant response rating, Arrowleaf Sida",50%
same,pest or weed control at 62 g/ha,"[1]; Sida rhombifolia, post-emergence, Postemergence, 62 g ai/ha, scale 0 to 100, read-out: Plant response rating, Arrowleaf Sida",70%
same,pest or weed control at 125 g/ha,"[1]; Sida rhombifolia, post-emergence, Postemergence, 125 g ai/ha, scale 0 to 100, read-out: Plant response rating, Arrowleaf Sida",80%
same,pest or weed control at 250 g/ha,"[1]; Sida rhombifolia, post-emergence, Postemergence, 250 g ai/ha, scale 0 to 100, read-out: Plant response rating, Arrowleaf Sida",85%
same,pest or weed control at 16 g/ha,"[1]; Sida rhombifolia, post-emergence, postemergence, 16 g ai/ha, scale 0 to 100, 0 no effect, 100 complete control, read-out: Plant response rating, Arrowleaf Sida",40%
same,pest or weed control at 31 g/ha,"[2]; Commelina virginica, post-emergence, Postemergence, 31 g ai/ha, scale 0 to 100, read-out: Plant response rating, Dayflower, VA",10%
same,pest or weed control at 62 g/ha,"[2]; Commelina virginica, post-emergence, Postemergence, 62 g ai/ha, scale 0 to 100, read-out: Plant response rating, Dayflower, VA",40%
same,pest or weed control at 125 g/ha,"[2]; Commelina virginica, post-emergence, Postemergence, 125 g ai/ha, scale 0 to 100, read-out: Plant response rating, Dayflower, VA",50%
same,pest or weed control at 250 g/ha,"[2]; Commelina virginica, post-emergence, Postemergence, 250 g ai/ha, scale 0 to 100, read-out: Plant response rating, Dayflower, VA",75%
same,pest or weed control at 16 g/ha,"[2]; Commelina virginica, post-emergence, postemergence, 16 g ai/ha, scale 0 to 100, 0 no effect, 100 complete control, read-out: Plant response rating, Dayflower, VA",5%
same,pest or weed control at 31 g/ha,"[3]; Panicum dichotomiflorum, post-emergence, Postemergence, 31 g ai/ha, scale 0 to 100, read-out: Plant response rating, Panicum, Fall",0%
same,pest or weed control at 62 g/ha,"[3]; Panicum dichotomiflorum, post-emergence, Postemergence, 62 g ai/ha, scale 0 to 100, read-out: Plant response rating, Panicum, Fall",0%
same,pest or weed control at 125 g/ha,"[3]; Panicum dichotomiflorum, post-emergence, Postemergence, 125 g ai/ha, scale 0 to 100, read-out: Plant response rating, Panicum, Fall",0%
same,pest or weed control at 250 g/ha,"[3]; Panicum dichotomiflorum, post-emergence, Postemergence, 250 g ai/ha, scale 0 to 100, read-out: Plant response rating, Panicum, Fall",0%
same,pest or weed control at 16 g/ha,"[3]; Panicum dichotomiflorum, post-emergence, postemergence, 16 g ai/ha, scale 0 to 100, 0 no effect, 100 complete control, read-out: Plant response rating, Panicum, Fall",0%
Clc1cnc(Oc2cccc(Br)c2-n2cc(Br)cn2)nc1 [Compound 65],"Plant response rating, Arrowleaf Sida",[1]; [5],60
same,"Plant response rating, Arrowleaf Sida",[1]; [6],80
same,"Plant response rating, Arrowleaf Sida",[1]; [7],80
same,"Plant response rating, Arrowleaf Sida",[1]; [8],55
same,"Plant response rating, Arrowleaf Sida",[1]; [9],50
same,"Plant response rating, Dayflower, VA",[2]; [5],10
same,"Plant response rating, Dayflower, VA",[2]; [6],10
same,"Plant response rating, Dayflower, VA",[2]; [7],20
same,"Plant response rating, Dayflower, VA",[2]; [8],5
same,"Plant response rating, Dayflower, VA",[2]; [9],5
same,"Plant response rating, Panicum, Fall",[3]; [5],5
same,"Plant response rating, Panicum, Fall",[3]; [6],0
same,"Plant response rating, Panicum, Fall",[3]; [7],15
same,"Plant response rating, Panicum, Fall",[3]; [8],0
same,"Plant response rating, Panicum, Fall",[3]; [9],0
N#Cc1cccc(Oc2ncc(F)cn2)c1-n1cc(Cl)cn1 [Compound 73],Cocklebur plant response rating,[4]; 16 g ai/ha,0
same,Cocklebur plant response rating,[4]; 31 g ai/ha,0
same,"Plant response rating, Cocklebur",[4]; 250 g ai/ha,25
FC(F)(F)c1cnn(-c2c(Cl)cccc2Oc2ncc(Cl)cn2)c1 [Compound 167],Cocklebur plant response rating,[4]; 16 g ai/ha,0
same,Cocklebur plant response rating,[4]; 31 g ai/ha,0
same,Cocklebur plant response rating,[4]; 62 g ai/ha,100
same,"Plant response rating, Cocklebur",[4]; 125 g ai/ha,90
